# Test results published in article PMC7982320 (Pharmacology Research & Perspectives, 2021).
# pIC50: −log10 of the molar value. Where “and” joins values, the source holds several entries; their conditions need not be identical. Equal values may be shown once. Entries after “also recorded” stand apart in the source; their conditions may differ. Read-outs that look alike come from different tables or passages of the source.
# Legend:
# Format in all cases: in vitro ADME
# CYP3A4 = CYP3A4 (Homo sapiens, UniProt P08684); experiment: CYP inhibition in pooled human liver microsomes, midazolam or testosterone probe; details: for pIC50: read-out: IC50, No preincubation, pooled HLMs, n = 3
# CYP3A4, sequence (P08684 whole entry): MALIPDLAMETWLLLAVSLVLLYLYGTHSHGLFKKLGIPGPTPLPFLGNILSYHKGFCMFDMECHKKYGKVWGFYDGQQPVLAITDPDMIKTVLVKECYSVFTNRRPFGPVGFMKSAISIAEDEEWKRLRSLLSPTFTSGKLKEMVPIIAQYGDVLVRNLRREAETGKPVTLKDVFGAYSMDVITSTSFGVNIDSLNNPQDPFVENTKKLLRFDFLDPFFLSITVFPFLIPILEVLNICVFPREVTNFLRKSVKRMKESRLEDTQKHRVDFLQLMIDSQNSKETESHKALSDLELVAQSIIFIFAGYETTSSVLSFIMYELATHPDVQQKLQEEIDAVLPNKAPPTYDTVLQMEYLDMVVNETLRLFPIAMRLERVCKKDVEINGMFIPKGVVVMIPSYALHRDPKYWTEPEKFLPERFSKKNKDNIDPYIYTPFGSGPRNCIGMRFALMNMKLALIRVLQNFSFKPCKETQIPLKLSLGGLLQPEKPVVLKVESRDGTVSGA
# CYP2C9 = CYP2C9 (Homo sapiens, UniProt P11712); experiment: CYP inhibition in pooled human liver microsomes, diclofenac probe; details: read-out: IC50, No preincubation; CYP2C9, pooled HLMs, n = 3
# CYP2C9, sequence (P11712 whole entry): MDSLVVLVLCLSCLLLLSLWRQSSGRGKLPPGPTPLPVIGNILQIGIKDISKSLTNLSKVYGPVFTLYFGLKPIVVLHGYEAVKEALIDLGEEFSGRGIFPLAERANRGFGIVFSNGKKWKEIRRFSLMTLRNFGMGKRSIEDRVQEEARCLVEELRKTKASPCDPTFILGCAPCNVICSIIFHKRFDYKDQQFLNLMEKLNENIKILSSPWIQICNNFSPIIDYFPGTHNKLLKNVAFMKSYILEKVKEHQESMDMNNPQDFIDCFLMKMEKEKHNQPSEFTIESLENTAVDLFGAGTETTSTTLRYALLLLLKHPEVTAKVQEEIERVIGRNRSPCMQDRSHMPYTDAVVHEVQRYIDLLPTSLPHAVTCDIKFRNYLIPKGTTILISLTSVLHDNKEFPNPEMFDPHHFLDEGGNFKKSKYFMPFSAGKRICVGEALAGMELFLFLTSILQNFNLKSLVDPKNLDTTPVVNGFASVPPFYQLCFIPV
# human MDR1 = human MDR1 (Homo sapiens, UniProt P08183); experiment: Transporter inhibition, vesicular transport assay
# human MDR1, sequence (P08183 whole entry): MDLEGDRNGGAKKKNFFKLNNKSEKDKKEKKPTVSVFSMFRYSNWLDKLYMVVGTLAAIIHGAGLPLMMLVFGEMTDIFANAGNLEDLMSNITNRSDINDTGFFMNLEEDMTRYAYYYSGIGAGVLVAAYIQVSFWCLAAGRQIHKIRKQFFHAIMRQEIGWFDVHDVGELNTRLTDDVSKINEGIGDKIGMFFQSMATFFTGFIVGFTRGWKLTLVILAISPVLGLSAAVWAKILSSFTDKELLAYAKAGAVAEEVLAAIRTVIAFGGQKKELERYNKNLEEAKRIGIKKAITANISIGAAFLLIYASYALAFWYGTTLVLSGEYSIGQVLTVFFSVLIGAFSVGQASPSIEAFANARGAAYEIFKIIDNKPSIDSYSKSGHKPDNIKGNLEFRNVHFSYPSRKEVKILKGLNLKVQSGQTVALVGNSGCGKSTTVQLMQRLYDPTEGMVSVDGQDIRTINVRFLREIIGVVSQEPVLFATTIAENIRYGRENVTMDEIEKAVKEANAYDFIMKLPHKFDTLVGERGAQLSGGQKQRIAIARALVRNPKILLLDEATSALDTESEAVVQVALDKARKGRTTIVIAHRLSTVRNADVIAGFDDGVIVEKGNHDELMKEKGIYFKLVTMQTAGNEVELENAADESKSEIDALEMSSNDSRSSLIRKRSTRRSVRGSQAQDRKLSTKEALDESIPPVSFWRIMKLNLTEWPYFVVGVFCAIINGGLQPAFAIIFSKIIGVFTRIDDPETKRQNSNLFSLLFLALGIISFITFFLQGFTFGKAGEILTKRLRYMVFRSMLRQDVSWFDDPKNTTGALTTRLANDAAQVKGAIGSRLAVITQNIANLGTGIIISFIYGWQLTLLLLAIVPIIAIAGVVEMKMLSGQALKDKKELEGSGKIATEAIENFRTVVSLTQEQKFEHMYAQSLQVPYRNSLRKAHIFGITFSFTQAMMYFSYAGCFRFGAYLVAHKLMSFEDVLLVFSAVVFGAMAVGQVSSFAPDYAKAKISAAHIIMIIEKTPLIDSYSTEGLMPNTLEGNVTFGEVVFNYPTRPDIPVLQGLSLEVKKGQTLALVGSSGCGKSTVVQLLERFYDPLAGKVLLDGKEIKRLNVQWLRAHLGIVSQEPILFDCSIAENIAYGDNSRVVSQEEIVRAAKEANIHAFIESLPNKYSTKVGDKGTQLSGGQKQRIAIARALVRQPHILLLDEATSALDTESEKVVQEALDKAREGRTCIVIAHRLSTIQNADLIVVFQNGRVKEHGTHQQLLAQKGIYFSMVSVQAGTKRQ
# human OCT2 = target: T1, human OCT2 (Homo sapiens, UniProt O15244); experiment: Transporter inhibition, uptake assay
# T1 sequence (O15244 1-555): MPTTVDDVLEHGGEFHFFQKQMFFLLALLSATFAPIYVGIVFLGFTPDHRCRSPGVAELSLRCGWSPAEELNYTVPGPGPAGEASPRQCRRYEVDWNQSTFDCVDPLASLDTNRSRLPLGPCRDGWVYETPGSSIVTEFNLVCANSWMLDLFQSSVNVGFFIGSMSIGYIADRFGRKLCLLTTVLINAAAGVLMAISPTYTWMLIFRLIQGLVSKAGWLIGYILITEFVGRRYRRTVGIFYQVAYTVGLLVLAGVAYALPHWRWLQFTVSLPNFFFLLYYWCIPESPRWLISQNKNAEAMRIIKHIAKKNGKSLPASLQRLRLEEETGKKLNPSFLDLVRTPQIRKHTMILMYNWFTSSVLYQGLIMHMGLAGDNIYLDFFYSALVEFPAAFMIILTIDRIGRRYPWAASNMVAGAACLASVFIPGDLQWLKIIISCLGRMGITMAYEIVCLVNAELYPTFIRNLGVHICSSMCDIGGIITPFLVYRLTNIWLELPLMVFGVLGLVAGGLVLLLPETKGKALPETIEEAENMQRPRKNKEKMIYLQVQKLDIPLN
# human BCRP = target: T2, human BCRP (Homo sapiens, UniProt Q9UNQ0); experiment: Transporter inhibition, vesicular transport assay
# T2 sequence (Q9UNQ0 1-655): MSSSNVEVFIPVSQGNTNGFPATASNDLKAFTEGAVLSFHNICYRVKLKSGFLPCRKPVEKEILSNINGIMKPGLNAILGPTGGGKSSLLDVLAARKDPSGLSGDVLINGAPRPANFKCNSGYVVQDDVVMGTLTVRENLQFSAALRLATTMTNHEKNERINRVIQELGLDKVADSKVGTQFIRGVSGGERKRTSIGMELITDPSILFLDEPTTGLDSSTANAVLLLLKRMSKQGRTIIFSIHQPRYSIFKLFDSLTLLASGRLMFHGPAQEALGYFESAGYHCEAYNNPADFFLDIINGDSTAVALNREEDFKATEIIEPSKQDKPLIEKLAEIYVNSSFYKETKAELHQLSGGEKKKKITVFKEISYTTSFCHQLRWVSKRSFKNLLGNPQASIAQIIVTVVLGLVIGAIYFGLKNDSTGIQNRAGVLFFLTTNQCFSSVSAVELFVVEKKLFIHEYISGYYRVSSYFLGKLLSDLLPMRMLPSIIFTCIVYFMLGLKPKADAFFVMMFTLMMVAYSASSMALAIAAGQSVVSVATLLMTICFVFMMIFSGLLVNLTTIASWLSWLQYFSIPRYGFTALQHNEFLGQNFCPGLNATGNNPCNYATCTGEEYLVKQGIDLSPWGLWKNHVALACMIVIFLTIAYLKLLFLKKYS
# CYP2C8 = CYP2C8 (Homo sapiens, UniProt P10632); experiment: CYP inhibition in pooled human liver microsomes, paclitaxel probe; details: read-out: IC50, No preincubation; CYP2C8, pooled HLMs, n = 3
# CYP2C8, sequence (P10632 whole entry): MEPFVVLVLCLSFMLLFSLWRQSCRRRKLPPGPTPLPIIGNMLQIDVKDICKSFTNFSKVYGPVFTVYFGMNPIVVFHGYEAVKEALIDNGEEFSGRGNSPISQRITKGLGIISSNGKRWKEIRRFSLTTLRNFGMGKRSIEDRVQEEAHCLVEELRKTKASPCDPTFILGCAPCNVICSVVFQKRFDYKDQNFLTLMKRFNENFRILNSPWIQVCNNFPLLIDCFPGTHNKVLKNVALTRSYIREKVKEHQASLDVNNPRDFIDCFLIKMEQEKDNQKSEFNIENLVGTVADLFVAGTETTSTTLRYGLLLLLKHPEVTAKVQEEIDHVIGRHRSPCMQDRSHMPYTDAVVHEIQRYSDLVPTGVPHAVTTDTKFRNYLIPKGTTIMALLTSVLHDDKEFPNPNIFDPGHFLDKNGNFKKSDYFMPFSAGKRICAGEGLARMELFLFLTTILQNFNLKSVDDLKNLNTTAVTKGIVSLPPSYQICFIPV
# CYP1A2 = CYP1A2 (Homo sapiens, UniProt P05177); details: read-out: IC50, No preincubation; CYP1A2, pooled HLMs, n = 3
# CYP1A2, sequence (P05177 whole entry): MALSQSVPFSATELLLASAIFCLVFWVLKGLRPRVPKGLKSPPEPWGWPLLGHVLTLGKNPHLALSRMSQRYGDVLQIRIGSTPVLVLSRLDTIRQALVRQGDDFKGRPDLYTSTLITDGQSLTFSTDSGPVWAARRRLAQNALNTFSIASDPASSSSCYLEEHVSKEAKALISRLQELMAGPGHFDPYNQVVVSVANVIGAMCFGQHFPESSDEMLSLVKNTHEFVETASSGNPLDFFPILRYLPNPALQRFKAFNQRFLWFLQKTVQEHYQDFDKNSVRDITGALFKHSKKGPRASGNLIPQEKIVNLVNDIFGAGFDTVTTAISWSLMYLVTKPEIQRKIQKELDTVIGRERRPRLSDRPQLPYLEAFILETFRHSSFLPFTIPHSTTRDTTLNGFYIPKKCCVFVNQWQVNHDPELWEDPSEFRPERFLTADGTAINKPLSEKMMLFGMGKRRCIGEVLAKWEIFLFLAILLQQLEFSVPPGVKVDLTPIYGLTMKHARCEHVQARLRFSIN
# CYP2B6 = CYP2B6 (Homo sapiens, UniProt P20813); details: read-out: IC50, No preincubation; CYP2B6, pooled HLMs, n = 3
# CYP2B6, sequence (P20813 whole entry): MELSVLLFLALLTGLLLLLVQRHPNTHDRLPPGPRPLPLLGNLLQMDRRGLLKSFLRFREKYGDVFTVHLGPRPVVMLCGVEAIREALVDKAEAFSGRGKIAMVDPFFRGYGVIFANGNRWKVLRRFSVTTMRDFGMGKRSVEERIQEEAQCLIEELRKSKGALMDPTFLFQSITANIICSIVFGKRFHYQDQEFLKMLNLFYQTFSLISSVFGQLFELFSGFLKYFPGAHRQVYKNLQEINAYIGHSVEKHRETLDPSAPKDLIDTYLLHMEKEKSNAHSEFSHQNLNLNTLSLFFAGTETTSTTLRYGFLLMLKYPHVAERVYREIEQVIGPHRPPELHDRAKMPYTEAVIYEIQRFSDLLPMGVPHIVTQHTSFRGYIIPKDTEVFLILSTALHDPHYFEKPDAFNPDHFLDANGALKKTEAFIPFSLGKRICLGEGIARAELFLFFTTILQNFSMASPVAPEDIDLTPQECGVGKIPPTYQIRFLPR
smiles,measurement,setting,value
"CC1=N[C@]2(C(=O)CO)[C@@H](C[C@H]3[C@@H]4C[C@@H](O)C5=CC(=O)C=C[C@]5(C)[C@H]4[C@@H](O)C[C@@]32C)O1 [6β‐OH‐21‐desDFZ, 6β‐Hydroxy‐21‐desacetyl deflazacort]",estimated plasma Cmax/IC50 ratio,"CYP3A4; CYP3A4, Cmax 0.34 µM, assumed 100% free",0.01
same,pIC50,CYP3A4; CYP3A4 (Midazolam),~4.46 and ≤ 4.70
same,pIC50,"CYP3A4; CYP3A4 (Midazolam), listed as 6β‐hydroxy‐21‐desacetyl deflazacort",4.46
same,pIC50,CYP3A4; CYP3A4 (Testosterone),< 4.30
same,pIC50,CYP2C9,< 4.30
same,estimated plasma Cmax/IC50 ratio,"human MDR1; MDR1, Cmax 0.34 µM, assumed 100% free",0.017
same,Maximum inhibition at 50 µM,"human MDR1; MDR1 VT, n = 3",78 % of control
same,inhibitory interaction with transporter,"human OCT2; OCT2, up to 50 µM",did not show interaction; also recorded: no inhibitory interaction
same,Maximum inhibition at 50 µM,"human OCT2; OCT2 UPT, n = 3",<20 % of control
same,Maximum inhibition at 50 µM,"human BCRP; BCRP VT, n = 3",<20 % of control
same,inhibitory interaction with transporter,"human BCRP; BCRP, up to 50 µM",no inhibitory interaction
same,pIC50,CYP2C8,< 4.30
same,pIC50,CYP1A2,< 4.30
same,pIC50,CYP2B6,< 4.30
